Reference: patent US20250114345A1, “COMPOUNDS AND COMPOSITIONS AS CBP/P300 DEGRADERS AND USES THEREOF” (Oncopia Therapeutics, Inc. d/b/a/ SK Life Science Labs, priority 2023, published 2025)

Biological target: T1, p300 (Homo sapiens, UniProt Q09472)
T1 construct: host or cells: A549 P300 HiBit cells
Test: P300 degradation, HiBit technology in A549 P300 HiBit cells (2 h)
Type: cell-based
Details: 2 hrs post treatment; for Dmax: A549, A549 P300 HiBit cells; for DC50: A549 P300 HiBit cells
Outline: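 Endogenously HiBiT-tagged A549 cells are plated, left overnight, then treated with a compound dilution series at 37 °C and 5% CO2. At the set time, lytic detection buffer is added and plates are shaken 10 min at room temperature before luminescence is measured to derive potency and Dmax.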

T1 sequence (Q09472 whole entry): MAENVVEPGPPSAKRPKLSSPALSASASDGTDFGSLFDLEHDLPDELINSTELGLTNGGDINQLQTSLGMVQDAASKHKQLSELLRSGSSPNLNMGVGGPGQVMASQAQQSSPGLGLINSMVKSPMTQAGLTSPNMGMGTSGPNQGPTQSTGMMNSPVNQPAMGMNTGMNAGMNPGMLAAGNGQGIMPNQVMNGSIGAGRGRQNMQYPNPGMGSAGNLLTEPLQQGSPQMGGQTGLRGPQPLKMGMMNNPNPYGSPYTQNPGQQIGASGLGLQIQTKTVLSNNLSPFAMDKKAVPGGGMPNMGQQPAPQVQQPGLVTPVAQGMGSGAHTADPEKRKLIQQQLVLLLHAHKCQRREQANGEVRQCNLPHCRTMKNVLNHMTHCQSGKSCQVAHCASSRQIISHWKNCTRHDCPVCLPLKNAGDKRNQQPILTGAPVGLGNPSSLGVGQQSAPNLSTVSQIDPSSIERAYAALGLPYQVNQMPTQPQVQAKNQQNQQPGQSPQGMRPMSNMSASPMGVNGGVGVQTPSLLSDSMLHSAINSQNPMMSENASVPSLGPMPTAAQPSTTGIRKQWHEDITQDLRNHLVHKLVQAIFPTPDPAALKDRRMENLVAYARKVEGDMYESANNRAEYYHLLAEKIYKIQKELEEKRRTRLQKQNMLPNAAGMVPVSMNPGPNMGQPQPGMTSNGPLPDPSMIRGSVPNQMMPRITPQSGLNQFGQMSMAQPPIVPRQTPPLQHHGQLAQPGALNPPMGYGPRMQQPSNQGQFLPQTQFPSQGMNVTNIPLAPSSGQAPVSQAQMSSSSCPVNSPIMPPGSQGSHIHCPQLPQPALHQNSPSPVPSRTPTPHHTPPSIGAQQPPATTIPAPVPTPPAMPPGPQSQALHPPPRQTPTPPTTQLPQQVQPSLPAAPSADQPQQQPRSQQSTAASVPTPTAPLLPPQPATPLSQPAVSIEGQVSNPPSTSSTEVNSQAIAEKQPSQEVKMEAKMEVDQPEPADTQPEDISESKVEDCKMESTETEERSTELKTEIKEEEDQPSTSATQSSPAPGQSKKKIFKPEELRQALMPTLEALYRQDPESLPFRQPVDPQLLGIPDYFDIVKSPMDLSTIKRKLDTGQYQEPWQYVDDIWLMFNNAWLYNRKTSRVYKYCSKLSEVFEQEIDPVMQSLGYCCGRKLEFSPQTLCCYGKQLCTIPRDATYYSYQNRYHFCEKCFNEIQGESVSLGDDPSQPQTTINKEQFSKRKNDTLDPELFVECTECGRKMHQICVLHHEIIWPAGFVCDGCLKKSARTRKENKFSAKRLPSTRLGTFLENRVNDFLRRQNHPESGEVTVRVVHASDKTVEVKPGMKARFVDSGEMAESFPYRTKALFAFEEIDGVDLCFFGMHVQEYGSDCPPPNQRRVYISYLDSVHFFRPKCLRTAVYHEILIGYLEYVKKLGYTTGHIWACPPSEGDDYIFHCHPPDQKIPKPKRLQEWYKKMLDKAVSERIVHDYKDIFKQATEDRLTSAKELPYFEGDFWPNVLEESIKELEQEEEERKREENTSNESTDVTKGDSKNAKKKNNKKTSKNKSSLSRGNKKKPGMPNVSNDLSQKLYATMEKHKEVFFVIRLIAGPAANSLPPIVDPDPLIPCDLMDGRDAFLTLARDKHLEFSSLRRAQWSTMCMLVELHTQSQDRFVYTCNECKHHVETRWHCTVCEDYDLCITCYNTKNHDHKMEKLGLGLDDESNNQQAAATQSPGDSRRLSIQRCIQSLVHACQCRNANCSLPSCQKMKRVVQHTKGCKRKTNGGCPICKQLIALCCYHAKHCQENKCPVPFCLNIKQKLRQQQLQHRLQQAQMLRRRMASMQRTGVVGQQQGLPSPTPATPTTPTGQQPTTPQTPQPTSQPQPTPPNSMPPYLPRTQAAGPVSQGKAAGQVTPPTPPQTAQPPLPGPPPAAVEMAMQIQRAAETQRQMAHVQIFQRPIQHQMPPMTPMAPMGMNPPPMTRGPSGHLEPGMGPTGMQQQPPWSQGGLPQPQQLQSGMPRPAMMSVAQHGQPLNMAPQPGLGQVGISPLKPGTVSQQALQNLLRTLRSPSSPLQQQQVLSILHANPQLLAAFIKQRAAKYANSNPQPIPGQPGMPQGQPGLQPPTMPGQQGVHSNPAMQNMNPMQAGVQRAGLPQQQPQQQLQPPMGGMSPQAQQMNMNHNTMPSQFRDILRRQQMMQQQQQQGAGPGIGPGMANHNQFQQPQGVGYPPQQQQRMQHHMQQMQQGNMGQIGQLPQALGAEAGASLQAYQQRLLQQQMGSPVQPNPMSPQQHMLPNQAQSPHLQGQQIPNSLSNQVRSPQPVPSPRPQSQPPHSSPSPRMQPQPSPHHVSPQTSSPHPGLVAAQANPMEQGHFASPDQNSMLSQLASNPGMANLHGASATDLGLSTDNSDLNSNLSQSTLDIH

SMILES | Dmax [%] | DC50 [nM]
Cc1cc2c(N3CCCc4nc(-c5ccc(C(=O)NCC=C=Cc6ccc7occ(C8CCC(=O)NC8=O)c7c6)nc5)ncc43)cc(C3CCOCC3)cc2n(C)c1=O (stereo not shown) [Example B116, 5-(5-(1,3-dimethyl-2-oxo-7-(tetrahydro-2H-pyran-4-yl)-1,2-dihydroquinolin-5-yl)-5,6,7,8-tetrahydropyrido[3,2-d]pyrimidin-2-yl)-N-(4-(3-(2,6-dioxopiperidin-3-yl)benzofuran-5-yl)buta-2,3-dien-1-yl)picolinamide] | 40 to 59 | 10 to 99
Cc1cc(-c2ccc(Nc3cc4c(c(C(C)C)n3)n(C)c(=O)n4C)cn2)cnc1C(=O)NCC#Cc1ccc2occ(C3CCC(=O)NC3=O)c2c1 (stereo not shown) [Example A56, N-(3-(3-(2,6-dioxopiperidin-3-yl)benzofuran-5-yl)prop-2-yn-1-yl)-5-((4-isopropyl-1,3-dimethyl-2-oxo-2,3-dihydro-1H-imidazo[4,5-c]pyridin-6-yl)amino)-5′-methyl-[2,3′-bipyridine]-6′-carboxamide] | < 20 | > 1000
CC(C)c1cc(-c2cccc3cc(-c4ccc(C(=O)NCC#Cc5cc6c(C7CCC(=O)NC7=O)coc6cn5)nc4)ncc23)cc2c1n(C)c(=O)n2C (stereo not shown) [Example A228, N-(3-(3-(2,6-dioxo-piperidin-3-yl)furo[2,3-c]pyridin-5-yl)prop-2-yn-1-yl)-5-(8-(7-isopropyl-1,3-dimethyl-2-oxo-2,3-dihydro-1H-benzo [d]imidazol-5-yl)isoquinolin-3-yl)picolinamide] | 60 to 79 | 1 to 9.9
CC(C)c1cc(N(C)c2cnc(-c3ccc(C(=O)NCC#Cc4ccc5occ(C6CCC(=O)NC6=O)c5c4)nc3)cn2)cc2c1n(C)c(=O)n2C (stereo not shown) [Example A59, N-(3-(3-(2,6-dioxopiperidin-3-yl)benzofuran-5-yl)prop-2-yn-1-yl)-5-(5-((7-isopropyl-1,3-dimethyl-2-oxo-2,3-dihydro-1H-benzo [d]imidazol-5-yl)(methyl)amino)pyrazin-2-yl)picolinamide] | > 80 | 1 to 9.9
Cc1cc(-c2ccc(N(c3cc(C(C)C)c4c(c3)n(C)c(=O)n4C)C(F)(F)F)cn2)cnc1C(=O)NCC#Cc1cccc(NC2CCC(=O)NC2=O)c1 (stereo not shown) [Example A52, N-(3-(3-((2,6-dioxopiperidin-3-yl)amino)phenyl)prop-2-yn-1-yl)-5-((7-isopropyl-1,3-dimethyl-2-oxo-2,3-dihydro-1H-benzo [d]imidazol-5-yl) (trifluoromethyl)amino)-5′-methyl-[2,3′-bipyridine]-6′-carboxamide] | 60 to 79 | 100 to 999
Cn1cc(-c2ccc3c(c2)n(C)c(=O)n3C)c2cnc(-c3ccc(C(=O)NCC#Cc4ccc5occ(C6CCC(=O)NC6=O)c5c4)nc3)cc2c1=O (stereo not shown) [Example A129, 5-(8-(1,3-dimethyl-2-oxo-2,3-dihydro-1H-benzo[d]imidazol-5-yl)-6-methyl-5-oxo-5,6-dihydro-2,6-naphthyridin-3-yl)-N-(3-(3-(2,6-dioxo-piperidin-3-yl)benzo-furan-5-yl)prop-2-yn-1-yl)picolinamide] | > 80 | 1 to 9.9

Second part, the compound after the results:

Dmax [%] | DC50 [nM] | SMILES
> 80 | < 1 | Cc1cc(N2CCN(C)c3cc(-c4ccc(C(=O)NCC#Cc5cc6c(C7CCC(=O)NC7=O)nccc6o5)nc4)ncc32)cc2c1n(C)c(=O)n2C (stereo not shown) [Example A209, N-(3-(4-(2,6-dioxo-piperidin-3-yl)furo [3,2-c]pyridin-2-yl)prop-2-yn-1-yl)-5-(1-methyl-4-(1,3,7-trimethyl-2-oxo-2,3-dihydro-1H-benzo[d]imidazol-5-yl)-1,2,3,4-tetrahydropyrido[3,4-b]pyrazin-7-yl)picolinamide]
> 80 | 1 to 9.9 | Cc1cc2c(N3CCCc4nc(-c5ccc(C(=O)NCC#Cc6ccc7occ(C8CCC(=O)NC8=O)c7c6)nc5)ncc43)nc(N3CCC3)cc2n(C)c1=O (stereo not shown) [Example B86, 5-(5-(7-(azetidin-1-yl)-1,3-dimethyl-2-oxo-1,2-dihydro-1,6-naphthyridin-5-yl)-5,6,7,8-tetrahydropyrido[3,2-d]pyrimidin-2-yl)-N-(3-(3-(2,6-dioxopiperidin-3-yl)benzofuran-5-yl)prop-2-yn-1-yl)picolinamide]
> 80 | 1 to 9.9 | CCc1cc(N2CCCc3nc(-c4ccc(C(=O)NCC#Cc5ccc6occ(C7CCC(=O)NC7=O)c6c5)nc4)ncc32)c2cc(C)c(=O)n(C)c2c1 (stereo not shown) [Example B43, N-(3-(3-(2,6-dioxopiperidin-3-yl)benzofuran-5-yl)prop-2-yn-1-yl)-5-(5-(7-ethyl-1,3-dimethyl-2-oxo-1,2-dihydroquinolin-5-yl)-5,6,7,8-tetrahydropyrido[3,2-d]pyrimidin-2-yl) picolinamide]
> 80 | 1 to 9.9 | Cc1nc(-c2ncc(N(C)c3cc(C4CCOCC4)c4c(c3)n(C)c(=O)n4C)cn2)cnc1C(=O)NCC#Cc1cc2c(C3CCC(=O)NC3=O)cccc2o1 (stereo not shown) [Example A187, 5-(5-((1,3-dimethyl-2-oxo-7-(tetrahydro-2H-pyran-4-yl)-2,3-dihydro-1H-benzo[d]imidazol-5-yl)(methyl)amino)pyrimidin-2-yl)-N-(3-(4-(2,6-dioxopiperidin-3-yl)benzofuran-2-yl)prop-2-yn-1-yl)-3-methylpyrazine-2-carboxamide]
> 80 | < 1 | Cc1cc(N2CCCc3nc(-c4ccc(C(=O)NCC#Cc5cc6c(C7CCC(=O)NC7=O)cccc6o5)nc4)ncc32)cc2c1n(C)c(=O)n2C (stereo not shown) [Example A188, N-(3-(4-(2,6-dioxo-piperidin-3-yl)benzofuran-2-yl)prop-2-yn-1-yl)-5-(5-(1,3,7-trimethyl-2-oxo-2,3-dihydro-1H-benzo[d]imidazol-5-yl)-5,6,7,8-tetrahydropyrido[3,2-d]pyrimidin-2-yl)picolinamide]
> 80 | 1 to 9.9 | Cc1cc(N2CCN(C)c3nc(-c4ccc(C(=O)NCC#Cc5cc6c(C7CCC(=O)NC7=O)cccc6o5)nc4)ncc32)c2cc(C)c(=O)n(C)c2c1 (stereo not shown) [Example B104, N-(3-(4-(2,6-dioxopiperidin-3-yl)benzofuran-2-yl)prop-2-yn-1-yl)-5-(8-methyl-5-(1,3,7-trimethyl-2-oxo-1,2-dihydroquinolin-5-yl)-5,6,7,8-tetrahydropteridin-2-yl)picolinamide]
> 80 | 1 to 9.9 | Cc1cc2c(N3CCN(C)c4nc(-c5ccc(C(=O)NCC#Cc6ccc7occ(C8CCC(=O)NC8=O)c7c6)nc5)ncc43)cccc2n(C)c1=O (stereo not shown) [Example B33, 5-(5-(1,3-dimethyl-2-oxo-1,2-dihydroquinolin-5-yl)-8-methyl-5,6,7,8-tetrahydropteridin-2-yl)-N-(3-(3-(2,6-dioxopiperidin-3-yl)benzofuran-5-yl)prop-2-yn-1-yl)picolinamide]
> 80 | 1 to 9.9 | CCn1c(=O)n(C)c2ccc(-c3cccc4cc(-c5ccc(C(=O)NCC#Cc6cc7c(C8CCC(=O)NC8=O)cccc7o6)nc5)ncc34)cc21 (stereo not shown) [Example A267, N-(3-(4-(2,6-dioxo-piperidin-3-yl)benzofuran-2-yl)prop-2-yn-1-yl)-5-(8-(3-ethyl-1-methyl-2-oxo-2,3-dihydro-1H-benzo [d]imidazol-5-yl)isoquinolin-3-yl)picolinamide]
